Reference: the supplement of paper PMC10307832

Key:
Assay in all cases: relative viability (nuclei count vs DMSO), 5 days (fraction); higher = more cells survive
A549 = tested on: A549
In short: (§1)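 A single step with final 0.05% Triton X-100, 1% formaldehyde and 1 ug/ml Hoechst fixed the cells and stained nuclei 5 days after treatment. Lung cancer cell lines in 1536-well plates had been treated by pin tool the day after seeding with one drug alone or a fixed anchor-drug dose plus five library-drug doses (not always all listed) in √10 steps, and nuclei were counted on 4× images. Relative viability is the ratio of nuclei in treated wells to nuclei in vehicle wells, taken as the median of duplicate plates.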

HCC-78 = tested on: HCC-78
In short: as §1

NCI-H1623 = tested on: NCI-H1623
In short: as §1

NCI-H2009 = tested on: NCI-H2009
In short: as §1

NCI-H2342 = tested on: NCI-H2342
In short: as §1

NCI-H358 = tested on: NCI-H358
In short: as §1

NCI-H460 = tested on: NCI-H460
In short: as §1

NCI-H522 = tested on: NCI-H522
In short: as §1

NCI-H661 = tested on: NCI-H661
In short: as §1

Calu-6 = tested on: Calu-6
In short: as §1

EBC-1 = tested on: EBC-1
In short: as §1

IA-LM = tested on: IA-LM
In short: as §1

NCI-H1299 = tested on: NCI-H1299
In short: as §1

NCI-H1703 = tested on: NCI-H1703
In short: as §1

Structure (SMILES): CC(=O)O[C@@]12CO[C@@H]1C[C@H](O)[C@@]1(C)C(=O)[C@H](O)C3=C(C)[C@@H](OC(=O)[C@H](O)[C@@H](NC(=O)OC(C)(C)C)c4ccccc4)C[C@@](O)([C@@H](OC(=O)c4ccccc4)[C@H]21)C3(C)C [Docetaxel] + N=C(N)NC(=N)NCCc1ccccc1 [Phenformin] (partner 250 µM)
- relative viability (A549; first compound 0.0002 µM): 0.203
- relative viability (A549; first compound 0.000632 µM): 0.0682
- relative viability (A549; first compound 0.002 µM): 0.0555
- relative viability (A549; first compound 0.006325 µM): 0.0466
- relative viability (A549; first compound 0.02 µM): 0.0476
- relative viability (HCC-78; first compound 0.0002 µM): 0.582
- relative viability (HCC-78; first compound 0.000632 µM): 0.615
- relative viability (HCC-78; first compound 0.002 µM): 0.409
- relative viability (HCC-78; first compound 0.006325 µM): 0.371
- relative viability (HCC-78; first compound 0.02 µM): 0.354
- relative viability (NCI-H1623; first compound 0.0002 µM): 0.54
- relative viability (NCI-H1623; first compound 0.000632 µM): 0.568
- relative viability (NCI-H1623; first compound 0.002 µM): 0.494
- relative viability (NCI-H1623; first compound 0.006325 µM): 0.313
- relative viability (NCI-H1623; first compound 0.02 µM): 0.239
- relative viability (NCI-H2009; first compound 0.0002 µM): 0.483
- relative viability (NCI-H2009; first compound 0.000632 µM): 0.526
- relative viability (NCI-H2009; first compound 0.002 µM): 0.463
- relative viability (NCI-H2009; first compound 0.006325 µM): 0.321
- relative viability (NCI-H2009; first compound 0.02 µM): 0.202
- relative viability (NCI-H2342; first compound 0.0002 µM): 0.478
- relative viability (NCI-H2342; first compound 0.000632 µM): 0.596
- relative viability (NCI-H2342; first compound 0.002 µM): 0.625
- relative viability (NCI-H2342; first compound 0.006325 µM): 0.4
- relative viability (NCI-H2342; first compound 0.02 µM): 0.343
- relative viability (NCI-H358; first compound 0.0002 µM): 0.247
- relative viability (NCI-H358; first compound 0.000632 µM): 0.188
- relative viability (NCI-H358; first compound 0.006325 µM): 0.0907
- relative viability (NCI-H358; first compound 0.02 µM): 0.0664
- relative viability (NCI-H460; first compound 0.0002 µM): 0.481
- relative viability (NCI-H460; first compound 0.000632 µM): 0.351
- relative viability (NCI-H460; first compound 0.002 µM): 0.0311
- relative viability (NCI-H460; first compound 0.006325 µM): 0.0221
- relative viability (NCI-H460; first compound 0.02 µM): 0.0125
- relative viability (NCI-H522; first compound 0.0002 µM): 0.611
- relative viability (NCI-H522; first compound 0.000632 µM): 0.433
- relative viability (NCI-H522; first compound 0.002 µM): 0.527
- relative viability (NCI-H522; first compound 0.006325 µM): 0.55
- relative viability (NCI-H522; first compound 0.02 µM): 0.471
- relative viability (NCI-H661; first compound 0.0002 µM): 0.334
- relative viability (NCI-H661; first compound 0.000632 µM): 0.32
- relative viability (NCI-H661; first compound 0.002 µM): 0.317
- relative viability (NCI-H661; first compound 0.006325 µM): 0.267
- relative viability (NCI-H661; first compound 0.02 µM): 0.221

Structure (SMILES): COc1cc2nccc(Oc3ccc(NC(=O)Nc4cc(C)on4)c(Cl)c3)c2cc1OC [Tivozanib] + COc1cc2c(Oc3ccc(NC(=O)C4(C(=O)Nc5ccc(F)cc5)CC4)cc3F)ccnc2cc1OCCCN1CCOCC1 [Foretinib] (partner 0.25 µM)
- relative viability (A549; first compound 0.005 µM): 0.804
- relative viability (A549; first compound 0.01581 µM): 0.987
- relative viability (A549; first compound 0.05 µM): 1.01
- relative viability (A549; first compound 0.1581 µM): 0.976
- relative viability (A549; first compound 0.5 µM): 1.04
- relative viability (Calu-6; first compound 0.005 µM): 0.896
- relative viability (Calu-6; first compound 0.01581 µM): 0.845
- relative viability (Calu-6; first compound 0.05 µM): 0.929
- relative viability (Calu-6; first compound 0.1581 µM): 0.824
- relative viability (Calu-6; first compound 0.5 µM): 0.876
- relative viability (EBC-1; first compound 0.005 µM): 0.103
- relative viability (EBC-1; first compound 0.01581 µM): 0.104
- relative viability (EBC-1; first compound 0.05 µM): 0.11
- relative viability (EBC-1; first compound 0.1581 µM): 0.0953
- relative viability (EBC-1; first compound 0.5 µM): 0.0941
- relative viability (HCC-78; first compound 0.005 µM): 0.539
- relative viability (HCC-78; first compound 0.01581 µM): 0.543
- relative viability (HCC-78; first compound 0.05 µM): 0.534
- relative viability (HCC-78; first compound 0.1581 µM): 0.556
- relative viability (HCC-78; first compound 0.5 µM): 0.546
- relative viability (IA-LM; first compound 0.005 µM): 1.21
- relative viability (IA-LM; first compound 0.01581 µM): 1.15
- relative viability (IA-LM; first compound 0.05 µM): 1.24
- relative viability (IA-LM; first compound 0.1581 µM): 1.32
- relative viability (IA-LM; first compound 0.5 µM): 0.94
- relative viability (NCI-H1299; first compound 0.005 µM): 1.05
- relative viability (NCI-H1299; first compound 0.01581 µM): 1.09
- relative viability (NCI-H1299; first compound 0.05 µM): 1.11
- relative viability (NCI-H1299; first compound 0.1581 µM): 1.18
- relative viability (NCI-H1299; first compound 0.5 µM): 1.04
- relative viability (NCI-H1623; first compound 0.005 µM): 0.821
- relative viability (NCI-H1623; first compound 0.01581 µM): 0.989
- relative viability (NCI-H1623; first compound 0.05 µM): 0.938
- relative viability (NCI-H1623; first compound 0.1581 µM): 0.888
- relative viability (NCI-H1623; first compound 0.5 µM): 0.914
- relative viability (NCI-H1703; first compound 0.005 µM): 0.335
- relative viability (NCI-H1703; first compound 0.01581 µM): 0.385
- relative viability (NCI-H1703; first compound 0.05 µM): 0.384
- relative viability (NCI-H1703; first compound 0.1581 µM): 0.33
- relative viability (NCI-H1703; first compound 0.5 µM): 0.405
- relative viability (NCI-H2009; first compound 0.005 µM): 1.2
- relative viability (NCI-H2009; first compound 0.01581 µM): 1.16
- relative viability (NCI-H2009; first compound 0.05 µM): 1.19
- relative viability (NCI-H2009; first compound 0.1581 µM): 1.19
- relative viability (NCI-H2009; first compound 0.5 µM): 1.13
- relative viability (NCI-H2342; first compound 0.005 µM): 0.96
- relative viability (NCI-H2342; first compound 0.01581 µM): 1.11
- relative viability (NCI-H2342; first compound 0.05 µM): 1.11
- relative viability (NCI-H2342; first compound 0.5 µM): 1.05
- relative viability (NCI-H358; first compound 0.005 µM): 0.571
- relative viability (NCI-H358; first compound 0.01581 µM): 0.672
- relative viability (NCI-H358; first compound 0.05 µM): 0.732
- relative viability (NCI-H358; first compound 0.1581 µM): 0.639
- relative viability (NCI-H358; first compound 0.5 µM): 0.716
- relative viability (NCI-H460; first compound 0.005 µM): 0.983
- relative viability (NCI-H460; first compound 0.01581 µM): 0.948
- relative viability (NCI-H460; first compound 0.05 µM): 0.972
- relative viability (NCI-H460; first compound 0.1581 µM): 1.01
- relative viability (NCI-H460; first compound 0.5 µM): 0.96
- relative viability (NCI-H661; first compound 0.005 µM): 1
- relative viability (NCI-H661; first compound 0.01581 µM): 0.997
- relative viability (NCI-H661; first compound 0.05 µM): 1.03
- relative viability (NCI-H661; first compound 0.1581 µM): 0.806
- relative viability (NCI-H661; first compound 0.5 µM): 0.987
